# What was measured:
# CYP2C19 = CYP2C19 (Homo sapiens (Human), UniProt P33261); assay: Time-dependent inhibition (TDI) of CYP2C19 (S)-mephenytoin site of metabolism in human liver microsomes; format: in vitro ADME; settings: for IC50: (S)-mephenytoin
# Experimental: I. Materials and Instruments • 1. Phosphate buffered saline (20×PBS, purchased from Sangon); • 2. NADPH (ACROS, A2646-71-1); • 3. Human liver microsome (Corning Gentest, Cat No. 452161, Lot No. 905002, Donor36); • 4. ABI QTrap 4000 LC-MS System (AB Sciex); • 5. ZORBAX Extend-C18, 3×50 mm, 3.5 μm (Agilent, USA); • 6. CYP probe substrate ((S)-mephenytoin/20 μM, powder purchased from J&K Scientific Ltd., Cat No. 303768) and positive control inhibitor (ticlopidine, powder purchased from SIGMA, Cat No. T6654-1G).
# A 100 mM PBS buffer was prepared. A 15 mM MgCl2 solution and a 10 mM NADPH solution were prepared using the buffer. A 0.5 mg/mL microsome solution was prepared using the 15 mM MgCl2 solution. A 30 mM stock solution was diluted with DMSO to a series of solutions I with concentrations of 30 mM, 10 mM, 3 mM, 1 mM, 0.3 mM, 0.1 mM, 0.03 mM and 0 mM, which were then 10-fold diluted with acetonitrile (ACN) and finally 50-fold diluted with phosphate-buffered solution (PBS) to obtain a series of test working solutions II (60 μM, 20 μM, 6 μM, 2 μM, 0.6 μM, 0.2 μM, 0.06 μM and 0 μM). A 20 μM working solution of (S)-mephenytoin was prepared by dilution with PBS.
# The above prepared series of working solutions were well shaken and divided into 50 μL aliquots in corresponding reaction plates (+NADPH group and −NADPH group were set) in triplicate. 20 μL of the liver microsome working solution was added to each 96-well plate. 10 μL of NADPH was added to +NADPH group. The plates were incubated in a water bath at 37° C., and a timer was set on the incubation. After 30 min of incubation, the plates were taken out, and +NADPH group was supplemented with 20 μL of corresponding substrate solutions and −NADPH group with 20 μL of corresponding substrate solutions and 10 μL of NADPH. The plates were incubated in a water bath at 37° C., and a timer was set on the incubation. After 30 min of incubation, the plates were taken out, and the reactions were terminated with 250 μL of an ACN solution containing an internal standard. The plates were shaken on a shaker at 800 rpm for 10 min and centrifuged on a centrifuge at 4000 rpm for 15 min. 100 μL of supernatant and 80 μL of ultrapure water were well mixed and subjected to LC-MS/MS analysis.
# [1] = Pharmacokinetic evaluation in mice; format: in vivo, C57 mice; settings: for AUC(0-t) / half-life / Vd/F / CL/F / Cmax: female, C57, mouse, plasma; for AUC(0-t): read-out: Area under curve AUC0-t; for half-life: read-out: Half-life T½ (converted); for Vd/F: read-out: Apparent distribution volume Vz/F; for CL/F: read-out: Clearance CLz/F; for Cmax: read-out: Plasma concentration Cmax
# Experimental: The drug concentrations in the plasma of the test animals (mice) at different time points after intragastric (ig) administration/intravenous (iv) injection of the compounds of the present disclosure were determined by an LC/MS/MS method. The pharmacokinetic behavior of the compound of the present disclosure in mice was studied and its pharmacokinetic profile was evaluated.
# Thirty-six C57 mice, female, evenly divided into 4 groups, purchased from Beijing Vital River Laboratory Animal Technology Co., Ltd., with animal production license number: SCXK (Shanghai) 2017-0005.
# Intragastric administration: the drugs were intragastrically administered to mice at a dose of 2.0 mg/kg and a volume of 20.0 mL/kg.
# Intravenous injection administration: the drugs were administered to mice by intravenous injection at a dose of 1.0 mg/kg and a volume of 10.0 mL/kg.
# The blood was placed in an EDTA-K2 anticoagulation tube and centrifuged at 10,000 rpm for 1 min (4° C.), and plasma was separated out within 1 h and then stored at −80° C. before being tested. The process from blood collection to centrifugation was performed under an ice bath.
# (§1) The content of the test compounds at different concentrations in plasma of mice after the administration was determined: 25 μL of plasma of mice at each time point after the administration was mixed with 200 μL of acetonitrile (containing 50 μL of a solution of internal standard camptothecin (100 ng/mL)); the mixture was vortexed for 1 min, and centrifuged for 10 min (4000 r/min), and 0.5 μL of supernatant was taken for LC/MS/MS analysis.
# [2] = Pharmacokinetic evaluation in dogs; format: in vivo; settings: beagle dogs; for Vd/F / AUC(0-t) / CL/F / half-life / Cmax: male, dog, plasma; for Vd/F: read-out: Apparent distribution volume Vz/F; for AUC(0-t): read-out: Area under curve AUC0-t; for CL/F: read-out: Clearance CLz/F; for half-life: read-out: Half-life T½ (converted); for Cmax: read-out: Plasma concentration Cmax
# Experimental: Dogs are the test animals. The drug concentrations in the plasma of dogs at different time points after intragastric (ig) administration/intravenous (iv) injection of the compounds of the present disclosure were determined by an LC/MS/MS method. The pharmacokinetic performance in beagles of the compounds of the present disclosure was studied and the pharmacokinetic profile thereof was evaluated.
# Twelve beagle dogs, males, evenly divided into 4 groups, provided by the animal reserve bank (999M-004) of Shanghai Medicilon Inc. All animals were beagle dogs qualified for physical examination and healthy without abnormalities.
# Intragastric administration: the dose was 2 mg/kg and the volume was 50.0 mL/kg.
# Intravenous injection administration: the dose was 0.5 mg/kg and the volume was 20.0 mL/kg.
# The blood was placed in an EDTA-K2 anticoagulation tube and centrifuged at 10,000 rpm for 5 min (4° C.), and plasma was separated out within 1 h and then stored at −80° C. before being tested. Food intake was resumed 3 h after administration.
# The process from blood collection to centrifugation was performed under an ice bath.
# as §1, with “of beagle dogs” for “of mice”, “determined: 10” for “determined: 25”, “(containing” for “(containing 50 μL of”, “for 7” for “for 10”, “min (18,000” for “min (4000”, “and 6” for “and 0.5”
# [3] = 30 min pre-incubation with NADPH
# [4] = 30 min pre-incubation without NADPH
# [5] = po, intragastric administration, 2 mg/kg
# [6] = intravenous injection, 0.5 mg/kg
# CYP2C19, sequence (P33261 whole entry): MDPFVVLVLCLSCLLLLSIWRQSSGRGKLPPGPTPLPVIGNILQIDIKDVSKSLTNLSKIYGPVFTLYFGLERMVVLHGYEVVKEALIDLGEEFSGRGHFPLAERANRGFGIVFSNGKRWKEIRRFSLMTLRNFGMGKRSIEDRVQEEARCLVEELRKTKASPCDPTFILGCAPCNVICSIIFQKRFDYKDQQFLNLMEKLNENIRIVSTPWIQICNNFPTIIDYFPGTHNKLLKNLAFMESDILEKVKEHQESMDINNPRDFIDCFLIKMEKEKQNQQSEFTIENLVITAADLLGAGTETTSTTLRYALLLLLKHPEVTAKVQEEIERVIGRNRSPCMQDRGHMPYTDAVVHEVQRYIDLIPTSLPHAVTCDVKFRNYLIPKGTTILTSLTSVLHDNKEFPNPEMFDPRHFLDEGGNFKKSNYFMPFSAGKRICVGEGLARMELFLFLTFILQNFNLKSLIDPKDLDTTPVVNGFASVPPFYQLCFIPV
IC50 (CYP2C19; [3]) [µM],IC50 (CYP2C19; [4]) [µM],"AUC(0-t) ([1]; intravenous injection, 1 mg/kg) [ng·h/mL]","half-life ([1]; intravenous injection, 1 mg/kg) [h]","Vd/F [1, 5] [L/kg]","AUC(0-t) [1, 5] [ng·h/mL]","CL/F [1, 5] [mL/min/kg]","half-life [1, 5] [h]","Cmax [1, 5] [ng/mL]","Apparent distribution volume Vz/F ([1]; intravenous injection, 1 mg/kg) [L/kg]","Clearance CLz/F ([1]; intravenous injection, 1 mg/kg) [mL/min/kg]","Apparent distribution volume Vz/F [2, 6] [L/kg]","Clearance CLz/F [2, 6] [mL/min/kg]","Vd/F [2, 5] [L/kg]","AUC(0-t) [2, 5] [ng·h/mL]","CL/F [2, 5] [mL/min/kg]","half-life [2, 5] [h]","Cmax [2, 5] [ng/mL]","AUC(0-t) [2, 6] [ng·h/mL]","half-life [2, 6] [h]",Structure (SMILES),also measured
> 30,> 30,1870,1.3,4.01,2250,14.8,3.1,797,1.014,8.9,0.908,1.9,0.713,21400,1.6,5.3,4040,4010,5.4,"O=C(O)c1ccc2nc(CN3CCC(c4cccc5c4O[C@@H](c4ccc(Cl)cc4F)CO5)CC3)n(C[C@@H]3CCO3)c2c1 [Example 4, 2-((4-((S)-3-(4-Chloro-2-fluorophenyl)-2,3-dihydrobenzo[b][1,4]dioxan-5-yl)piperidin-1-yl)methyl)-1-(((S)-oxetan-2-yl)methyl)-1H-benzo[d]imidazole-6-carboxylic acid]","Cmax [2, 6]: 1220 ng/mL"
–,–,2190,1.5,5.76,1440,23.1,2.9,359,0.981,7.55,0.448,1.8,0.636,22100,1.7,4.9,4430,4830,3,"O=C(O)c1ccc2nc(CN3CCC(c4cccc5c4O[C@@H](c4ccc(Cl)cc4F)CO5)CC3)n(C[C@@H]3CCO3)c2n1 [Example 5, 2-((4-((S)-3-(4-Chloro-2-fluorophenyl)-2,3-dihydrobenzo[b][1,4]dioxan-5-yl)piperidin-1-yl)methyl)-3-((S)-oxetan-2-ylmethyl)-3H-imidazo[4,5-b]pyridine-5-carboxylic acid]","Cmax [2, 6]: 1740 ng/mL"
2.6,6.4,–,–,–,–,–,–,–,–,–,–,–,–,–,–,–,–,–,–,"C[C@]1(c2ccc(Cl)cc2F)Oc2cccc(C3CCN(Cc4nc5ccc(C(=O)O)cc5n4C[C@@H]4CCO4)CC3)c2O1 [Positive compound 1, reference compound]","IC50 shift at 30 min (CYP2C19; probe (S)-mephenytoin, CYP2C19 (S)-mephenytoin site, read-out: IC50 shift fold): 2.5"
